Article PMC7180948, “New Insights into 4-Anilinoquinazolines as Inhibitors of Cardiac Troponin I–Interacting Kinase (TNNi3K)” (Molecules, 2020)

Experiments:
Test in all cases: biochemical
Parameters in all cases: KINOMEscan competition binding panel (Eurofins DiscoverX), single concentration, % inhibition
Settings in all cases: read-out: 7 at 1 µM % inhibition
ACVRL1 = ACVRL1 (Homo sapiens, UniProt P37023)
How it was run: (§1)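 Kinome-wide profiling (KINOMEscan, >400 human kinases) was run at 1 µM compound.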

BRSK2 = BRSK2 (Homo sapiens, UniProt Q8IWQ3)
How it was run: as §1

BTK = BTK (Homo sapiens, UniProt Q06187)
How it was run: as §1

CAMKK2 = CAMKK2 (Homo sapiens, UniProt Q96RR4)
How it was run: as §1

CDK4-cyclinD3 = biological target: T1, CDK4-cyclinD3 (Homo sapiens, UniProt P11802)
T1 construct: cyclinD3
How it was run: as §1

CLK4 = CLK4 (Homo sapiens, UniProt Q9HAZ1)
How it was run: as §1

EGFR(T790M) = EGFR(T790M) (Homo sapiens, UniProt P00533, T790M)
How it was run: as §1

ERBB3 = ERBB3 (Homo sapiens, UniProt P21860)
How it was run: as §1

FER = FER (Homo sapiens, UniProt P16591)
How it was run: as §1

HIPK2 = HIPK2 (Homo sapiens, UniProt Q9H2X6)
How it was run: as §1

IGF1R = IGF1R (Homo sapiens, UniProt P08069)
How it was run: as §1

IRAK3 = IRAK3 (Homo sapiens, UniProt Q9Y616)
How it was run: as §1

KIT(V559D,T670I) = KIT(V559D,T670I) (Homo sapiens, UniProt P10721, T670I/V559D)
How it was run: as §1

LATS2 = LATS2 (Homo sapiens, UniProt Q9NRM7)
How it was run: as §1

MAP3K15 = MAP3K15 (Homo sapiens, UniProt Q6ZN16)
How it was run: as §1

MARK1 = MARK1 (Homo sapiens, UniProt Q9P0L2)
How it was run: as §1

MARK3 = MARK3 (Homo sapiens, UniProt P27448)
How it was run: as §1

MAST1 = MAST1 (Homo sapiens, UniProt Q9Y2H9)
How it was run: as §1

MEK1 = biological target: T2, MEK1 (Homo sapiens, UniProt Q02750)
T2 construct: gene MAP2K1
How it was run: as §1

MKNK2 = MKNK2 (Homo sapiens, UniProt Q9HBH9)
How it was run: as §1

PHKG1 = PHKG1 (Homo sapiens, UniProt Q16816)
How it was run: as §1

PRKR = biological target: T3, PRKR (Homo sapiens, UniProt P19525)
T3 construct: gene EIF2AK2
How it was run: as §1

TLK2 = TLK2 (Homo sapiens, UniProt Q86UE8)
How it was run: as §1

TXK = TXK (Homo sapiens, UniProt P42681)
How it was run: as §1

p38-alpha = biological target: T4, p38-alpha (Homo sapiens, UniProt Q16539)
T4 construct: gene MAPK14
How it was run: as §1

Sequence of KIT(V559D,T670I) (P10721 whole entry V559D/T670I): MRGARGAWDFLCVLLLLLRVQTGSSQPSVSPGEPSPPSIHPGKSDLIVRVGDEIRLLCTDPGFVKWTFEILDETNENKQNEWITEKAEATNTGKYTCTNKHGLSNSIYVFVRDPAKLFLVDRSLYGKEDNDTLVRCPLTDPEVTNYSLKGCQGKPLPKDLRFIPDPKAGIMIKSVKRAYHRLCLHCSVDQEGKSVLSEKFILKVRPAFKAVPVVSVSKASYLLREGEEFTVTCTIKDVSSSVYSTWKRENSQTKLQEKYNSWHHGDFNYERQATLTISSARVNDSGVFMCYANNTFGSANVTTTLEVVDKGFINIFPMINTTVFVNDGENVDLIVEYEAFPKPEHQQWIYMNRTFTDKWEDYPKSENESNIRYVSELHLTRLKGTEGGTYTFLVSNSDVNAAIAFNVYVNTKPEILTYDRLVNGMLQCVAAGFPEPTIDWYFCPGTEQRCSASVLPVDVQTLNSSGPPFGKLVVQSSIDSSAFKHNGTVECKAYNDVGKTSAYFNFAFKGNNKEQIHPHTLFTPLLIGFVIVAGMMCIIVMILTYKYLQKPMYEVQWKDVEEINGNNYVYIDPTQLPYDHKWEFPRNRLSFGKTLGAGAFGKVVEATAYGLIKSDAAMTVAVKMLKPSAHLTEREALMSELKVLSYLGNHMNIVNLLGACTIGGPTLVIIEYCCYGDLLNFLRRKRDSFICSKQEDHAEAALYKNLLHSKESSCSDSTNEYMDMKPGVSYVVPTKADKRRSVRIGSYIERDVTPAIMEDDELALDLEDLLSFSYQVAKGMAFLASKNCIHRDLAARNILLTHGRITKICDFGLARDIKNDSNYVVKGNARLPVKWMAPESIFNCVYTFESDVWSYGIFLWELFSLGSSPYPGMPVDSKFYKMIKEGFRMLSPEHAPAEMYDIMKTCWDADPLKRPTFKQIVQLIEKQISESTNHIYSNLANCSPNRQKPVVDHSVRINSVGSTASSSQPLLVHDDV
Sequence of LATS2 (Q9NRM7 whole entry): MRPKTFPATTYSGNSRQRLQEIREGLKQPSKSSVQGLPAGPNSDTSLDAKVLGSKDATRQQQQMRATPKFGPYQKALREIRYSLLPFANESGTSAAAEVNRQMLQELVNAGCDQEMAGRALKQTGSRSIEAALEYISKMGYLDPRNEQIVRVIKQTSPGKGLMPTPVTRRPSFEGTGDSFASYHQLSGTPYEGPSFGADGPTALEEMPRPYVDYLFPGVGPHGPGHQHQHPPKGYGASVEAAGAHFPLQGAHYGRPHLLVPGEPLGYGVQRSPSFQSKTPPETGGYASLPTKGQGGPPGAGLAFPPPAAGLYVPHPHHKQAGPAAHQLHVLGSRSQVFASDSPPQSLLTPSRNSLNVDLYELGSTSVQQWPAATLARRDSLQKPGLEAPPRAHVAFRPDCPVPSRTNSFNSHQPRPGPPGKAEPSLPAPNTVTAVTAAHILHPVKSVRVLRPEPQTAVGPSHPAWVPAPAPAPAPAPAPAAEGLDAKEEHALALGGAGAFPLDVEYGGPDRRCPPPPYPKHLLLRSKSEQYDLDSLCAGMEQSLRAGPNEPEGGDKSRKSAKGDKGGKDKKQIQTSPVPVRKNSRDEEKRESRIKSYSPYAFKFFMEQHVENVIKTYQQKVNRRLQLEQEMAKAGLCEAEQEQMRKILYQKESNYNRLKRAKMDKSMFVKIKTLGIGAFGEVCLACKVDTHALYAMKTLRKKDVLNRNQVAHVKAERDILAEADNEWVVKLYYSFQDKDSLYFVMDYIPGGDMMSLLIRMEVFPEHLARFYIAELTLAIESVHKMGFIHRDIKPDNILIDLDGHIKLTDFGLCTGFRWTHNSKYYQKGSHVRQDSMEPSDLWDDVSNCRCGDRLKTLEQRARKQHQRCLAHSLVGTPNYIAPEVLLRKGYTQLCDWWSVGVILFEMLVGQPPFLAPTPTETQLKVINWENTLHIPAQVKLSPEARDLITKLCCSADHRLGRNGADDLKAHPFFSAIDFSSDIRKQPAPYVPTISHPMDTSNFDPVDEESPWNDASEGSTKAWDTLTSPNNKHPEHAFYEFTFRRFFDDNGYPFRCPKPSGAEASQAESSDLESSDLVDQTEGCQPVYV
Sequence of MARK1 (Q9P0L2 whole entry): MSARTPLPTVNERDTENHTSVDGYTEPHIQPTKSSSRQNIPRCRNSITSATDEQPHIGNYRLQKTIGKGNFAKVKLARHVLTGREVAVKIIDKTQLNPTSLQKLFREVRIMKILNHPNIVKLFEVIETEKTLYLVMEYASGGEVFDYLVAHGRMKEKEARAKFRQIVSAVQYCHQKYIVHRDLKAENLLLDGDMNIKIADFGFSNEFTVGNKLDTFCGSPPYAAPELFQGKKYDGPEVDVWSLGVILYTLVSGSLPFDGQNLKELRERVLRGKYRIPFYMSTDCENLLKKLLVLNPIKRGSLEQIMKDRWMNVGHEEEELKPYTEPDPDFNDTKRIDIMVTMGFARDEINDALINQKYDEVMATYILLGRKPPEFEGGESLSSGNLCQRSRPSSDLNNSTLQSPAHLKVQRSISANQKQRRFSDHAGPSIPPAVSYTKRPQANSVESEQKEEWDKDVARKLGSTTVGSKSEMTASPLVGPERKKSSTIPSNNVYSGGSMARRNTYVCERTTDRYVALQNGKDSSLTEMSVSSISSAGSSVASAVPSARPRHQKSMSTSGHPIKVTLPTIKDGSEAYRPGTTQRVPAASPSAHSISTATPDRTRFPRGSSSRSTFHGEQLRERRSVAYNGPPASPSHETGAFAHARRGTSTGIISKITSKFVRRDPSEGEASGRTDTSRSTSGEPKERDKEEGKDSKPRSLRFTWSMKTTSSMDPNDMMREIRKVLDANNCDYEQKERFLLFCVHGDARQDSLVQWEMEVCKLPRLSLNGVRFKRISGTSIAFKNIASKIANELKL
Sequence of TLK2 (Q86UE8 whole entry): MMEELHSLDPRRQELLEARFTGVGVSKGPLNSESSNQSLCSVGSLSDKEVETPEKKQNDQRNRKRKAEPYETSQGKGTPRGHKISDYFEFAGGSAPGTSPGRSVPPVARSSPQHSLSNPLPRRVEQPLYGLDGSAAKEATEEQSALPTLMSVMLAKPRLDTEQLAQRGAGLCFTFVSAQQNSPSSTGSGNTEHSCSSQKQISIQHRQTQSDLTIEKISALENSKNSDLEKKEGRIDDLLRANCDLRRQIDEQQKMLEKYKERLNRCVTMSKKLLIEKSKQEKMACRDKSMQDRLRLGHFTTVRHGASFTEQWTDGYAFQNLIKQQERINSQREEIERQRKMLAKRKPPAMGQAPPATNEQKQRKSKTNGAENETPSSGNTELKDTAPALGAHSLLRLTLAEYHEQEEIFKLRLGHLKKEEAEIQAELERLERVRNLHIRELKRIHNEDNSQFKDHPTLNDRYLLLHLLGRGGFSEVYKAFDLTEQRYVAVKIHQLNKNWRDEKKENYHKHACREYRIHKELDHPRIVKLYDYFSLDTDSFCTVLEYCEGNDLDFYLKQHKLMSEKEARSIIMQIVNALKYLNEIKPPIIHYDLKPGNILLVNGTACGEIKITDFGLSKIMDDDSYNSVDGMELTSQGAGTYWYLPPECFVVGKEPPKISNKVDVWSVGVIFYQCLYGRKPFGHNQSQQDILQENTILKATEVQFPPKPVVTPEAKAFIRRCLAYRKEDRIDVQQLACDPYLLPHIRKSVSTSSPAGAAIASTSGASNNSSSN
T3 sequence (P19525 whole entry): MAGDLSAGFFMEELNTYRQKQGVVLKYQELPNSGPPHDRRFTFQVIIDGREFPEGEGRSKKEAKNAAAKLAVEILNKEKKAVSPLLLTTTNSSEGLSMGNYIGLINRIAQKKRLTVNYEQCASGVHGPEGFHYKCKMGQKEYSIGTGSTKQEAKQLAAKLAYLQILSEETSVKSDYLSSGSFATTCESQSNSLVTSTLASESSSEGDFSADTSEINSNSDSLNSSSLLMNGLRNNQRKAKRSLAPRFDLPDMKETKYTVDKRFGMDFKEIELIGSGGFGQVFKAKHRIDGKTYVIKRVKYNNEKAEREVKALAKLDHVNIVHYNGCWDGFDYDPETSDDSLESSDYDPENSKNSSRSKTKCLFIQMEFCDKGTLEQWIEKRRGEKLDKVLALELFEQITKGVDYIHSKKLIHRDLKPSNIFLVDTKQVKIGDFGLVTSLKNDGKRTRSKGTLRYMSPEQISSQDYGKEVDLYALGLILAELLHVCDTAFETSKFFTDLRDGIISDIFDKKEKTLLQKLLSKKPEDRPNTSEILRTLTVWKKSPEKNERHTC
Sequence of MKNK2 (Q9HBH9 whole entry): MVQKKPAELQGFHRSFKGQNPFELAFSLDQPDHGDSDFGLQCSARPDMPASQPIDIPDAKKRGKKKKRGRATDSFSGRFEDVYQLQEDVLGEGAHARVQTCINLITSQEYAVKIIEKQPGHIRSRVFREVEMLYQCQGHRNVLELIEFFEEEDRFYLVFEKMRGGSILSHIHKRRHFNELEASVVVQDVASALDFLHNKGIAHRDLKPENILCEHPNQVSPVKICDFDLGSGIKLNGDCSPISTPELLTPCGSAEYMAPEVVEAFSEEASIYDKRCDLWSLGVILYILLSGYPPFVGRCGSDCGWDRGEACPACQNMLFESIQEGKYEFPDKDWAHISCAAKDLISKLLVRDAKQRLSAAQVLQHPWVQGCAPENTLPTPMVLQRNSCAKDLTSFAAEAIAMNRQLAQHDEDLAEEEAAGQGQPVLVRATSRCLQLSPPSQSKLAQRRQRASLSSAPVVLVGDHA
T2 sequence (Q02750 whole entry): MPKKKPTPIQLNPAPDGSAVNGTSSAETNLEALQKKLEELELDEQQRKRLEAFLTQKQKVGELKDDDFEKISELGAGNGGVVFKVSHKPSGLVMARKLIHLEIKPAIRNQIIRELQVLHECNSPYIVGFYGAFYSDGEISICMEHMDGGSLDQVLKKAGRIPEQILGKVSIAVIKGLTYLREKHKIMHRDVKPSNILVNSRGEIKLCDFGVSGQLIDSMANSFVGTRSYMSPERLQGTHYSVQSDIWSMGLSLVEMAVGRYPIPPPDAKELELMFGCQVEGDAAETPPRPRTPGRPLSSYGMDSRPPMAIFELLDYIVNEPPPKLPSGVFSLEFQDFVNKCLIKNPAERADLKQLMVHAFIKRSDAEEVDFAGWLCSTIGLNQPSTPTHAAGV

With `CNS(=O)(=O)c1ccc(N(C)C)c(Nc2ncnc3cc(OC)c(OC)cc23)c1` [compound 7, 3-((6,7-dimethoxyquinazolin-4-yl)amino)-4-(dimethylamino)-N-methylbenzenesulfonamide] the inhibition at 1 µM (ACVRL1) was 0%, the inhibition at 1 µM (BRSK2) was 27% and the inhibition at 1 µM (BTK) was 54%. The inhibition at 1 µM (CAMKK2) was 0%, the inhibition at 1 µM (CDK4-cyclinD3) was 37% and the inhibition at 1 µM (CLK4) was 13%. The inhibition at 1 µM (EGFR(T790M)) was 25%, the inhibition at 1 µM (ERBB3) was 31% and the inhibition at 1 µM (FER) was 0%. For the same molecule, the inhibition at 1 µM (HIPK2) was 0%, the inhibition at 1 µM (IGF1R) was 0% and the inhibition at 1 µM (IRAK3) was 0%. The inhibition at 1 µM (KIT(V559D,T670I)) was 8%, the inhibition at 1 µM (LATS2) was 0% and the inhibition at 1 µM (MAP3K15) was 4%. The inhibition at 1 µM (MARK1) was 7%, the inhibition at 1 µM (MARK3) was 0% and the inhibition at 1 µM (MAST1) was 10%. The inhibition at 1 µM (MEK1) was 35%, the inhibition at 1 µM (MKNK2) was 13% and the inhibition at 1 µM (PHKG1) was 0%. The inhibition at 1 µM (PRKR) was 0%, the inhibition at 1 µM (TLK2) was 0% and the inhibition at 1 µM (TXK) was 0%. For the same molecule, the inhibition at 1 µM (p38-alpha) was 0%.
